Reference: ChEMBL document CHEMBL3228042, “Stereochemical aspects of the metabolism of 5-(4'-fluorophenyl)-5-phenylhydantoin in the rat” (J Med Chem, 1979)

Assays:
Type in all cases: ADME, organism-based
Conditions in all cases: in vivo
[1] = Drug metabolism in ip dosed Wistar rat assessed as […] level in urine up to 96 hrs by GC-MS analysis
[2] = Drug metabolism in ip dosed Wistar rat assessed as 5-(3',4'-dihydroxyphenyl)-5-(4'-fluorophenyl)hydantoin level in urine up to 96 hrs by GC-MS analysis
[3] = Drug metabolism in ip dosed Wistar rat assessed as 3'-O-methyl derivative level in urine up to 96 hrs by GC-MS analysis
[4] = Drug metabolism in ip dosed Wistar rat assessed as 5-(4'-fluorophenyl)-5-(4'-hydroxyphenyl)hydantoin level in urine up to 96 hrs by GC-MS analysis
[5] = Drug metabolism in ip dosed Wistar rat assessed as (R,S)-5-(3',4'-dimethoxyphenyl)-5-(4'-fluorophenyl)hydantoin level in urine up to 96 hrs by GC-MS analysis
[6] = Drug metabolism in ip dosed Wistar rat assessed as (R)-(-)-5-(4'-fluorphenyl)-5-(4'-hydroxyphenyl)hydantoin level in urine up to 96 hrs by TLC analysis

Measured: Drug metabolism

O=C1NC(=O)C(c2ccccc2)(c2ccc(F)cc2)N1 (stereo unspecified)
metabolite_detected: [1] | [2] | [3] | [4] | [5]

O=C1NC(=O)C(c2ccc(O)cc2)(c2ccc(F)cc2)N1 (racemic)
metabolite_detected: [6]

O=C1[N-]C(=O)C(c2ccccc2)(c2ccc(F)cc2)N1.[Na+] (racemic)
metabolite_detected: [1] | [2] | [3] | [4] | [5]
